{"source": "patent US20070244107A1", "about": "“Method of Treating Atherosclerosis, Dyslipidemias and Related Conditions” (priority 2004, published 2007)", "test_system": "male C57B16 mice", "assay": "Flushing via laser Doppler procedure in mice", "assay_type": "in vivo", "conditions": "relative to nicotinic acid; mouse model", "procedure": "To measure flushing, male C57B16 mice (approx. 25 g) are anesthetized using 10 mg/mkg Nembutal sodium. After ten minutes the animal is placed under the laser and the ear is folded back to expose the ventral side. The laser is positioned in the center of the ear and focused to an intensity of 8.4-9.0 V (which is generally approx. 4.5 cm above the ear). Data acquisition is initiated with a 15 by 15 image format, auto interval, 60 images and a 20 sec time delay with a medium resolution. Test compounds are administered following the 10th image via injection into the peritoneal space. Images 1-10 are considered the animal's baseline and data is normalized to an average of the baseline mean intensities.", "note": "“Also recorded” adds a separate entry of the source.", "data": [{"smiles": "C1Cc2[nH]nc(-c3nnn[nH]3)c2C1", "note": "[compound of formula I, 3-(2H-tetrazol-5-yl)-1,4,5,6-tetrahydrocyclopentapyrazole]", "values": [{"measurement": "flushing effect", "value": "reduced flushing effect relative to nicotinic acid; also recorded: reduced flushing effect relative to nicotinic acid, but flushing is not completely eliminated"}]}]}
